{
  "source": "patent US20070082942A1",
  "about": "“Prevention of hiv-1 infection by inhibition of rho-mediated reorganization and/or content alteration of cell membrane raft” (priority 2003, published 2007)",
  "key": {"[1]": {"tested_on": "replication-defective NL4-3 virus pseudotyped with VSV envelope", "assay_type": "cell-based, vesicular stomatitis virus"}, "[2]": {"tested_on": "replication-defective NL4-3 virus pseudotyped with HIV-1ADA envelope", "assay_type": "cell-based", "conditions": "for Entry of R5-pseudotyped virus: MT2-CCR5 cells treated with 10 μM compound, 48 h, FIG. 6A, 7B"}, "[3]": {"tested_on": "gp120 with the HIV-1 receptors CD4 and CXCR4", "experiment": "gp120-induced patching", "conditions": "for Restoration of patch size and gp120-CXCR4 co-localization in lovastatin-treated cells: addition to lovastatin-treated cells"}, "[4]": {"tested_on": "HIV-1 LTR-driven promoter", "experiment": "LTR-driven gene expression", "conditions": "for Reversal of lovastatin-induced increase in LTR-driven transcription: supplementation with lovastatin", "method": "LTR-driven gene expression. Jurkat cells transfected with pLTR-luc (Schwartz, O. et al (1990) Gene 88:197-205), pcDNA-tat and the promoterless renilla luciferase plasmid were treated at 4 h post-transfection with inhibitors and metabolites at the indicated concentrations (see HIV-1. infections section). Relative luciferase units (RLU) were calculated as the ratio between firefly and renilla activity after 48 h."}, "X4 (NL4-3) HIV-1 strain": {"tested_on": "X4 (NL4-3) HIV-1 strain", "experiment": "HIV-1 infection of PHA-activated human PBMC, p24 antigen, X4 strain", "assay_type": "cell-based", "description": "(§1) Treated PBMC were incubated with NL4-3 or BaL viral stocks (1 or 10 ng p24 antigen/10^6 cells; 3 h, 37° C.). Cell-free supernatants were collected daily from cultured cells (0.5×10^6/ml) and tested for p24 antigen (Coulter)."}, "[5]": {"tested_on": "HIV-1-pseudotyped virus produced by HEK 293T cells", "assay_type": "cell-based"}, "R5 (BaL) HIV-1 strain": {"tested_on": "R5 (BaL) HIV-1 strain", "experiment": "HIV-1 infection of PHA-activated human PBMC, p24 antigen, R5 strain", "assay_type": "cell-based", "description": "as §1"}, "HIV-1 NL4-3": {"tested_on": "HIV-1 NL4-3", "experiment": "Murine SCID-hu-PBMC model of HIV-1 infection", "assay_type": "in vivo, CB.17 SCID/SCID mice"}, "HIV-1": {"tested_on": "HIV-1", "experiment": "Lovastatin treatment of HIV-1-infected patients", "assay_type": "in vivo, human", "conditions": "Table I"}, "[6]": {"tested_on": "VSV-G-pseudotyped virus produced by HEK 293T cells", "assay_type": "cell-based, vesicular stomatitis virus"}, "[7]": {"tested_on": "X4-pseudotyped replication-defective HIV-1 NL4-3 variant", "assay_type": "cell-based", "conditions": "10 μM lovastatin; not shown"}, "MT2-CCR5 cells": {"tested_on": "MT2-CCR5 cells", "experiment": "Cell cholesterol mass determination", "conditions": "lovastatin-treated MT2-CCR5 cells; FIG. 7C"}, "grafted human PBMC": {"tested_on": "grafted human PBMC", "conditions": "mouse, in vivo"}, "Rho": {"tested_on": "Rho", "experiment": "Rho activation assay", "assay_type": "cell-based", "conditions": "FIG. 8C", "description": "Rho and Rac activation assay. […] At times indicated, cells were washed with ice-cold PBS and lysates prepared using Rho or Rac activation assay kits (Upstate Biotechnology). GTP-bound Rho was precipitated with RBD-agarose beads and GTP-Rac with PBD-agarose beads. Activated Rho or Rac were measured in pellets by Western blot with specific antibodies, using crude cell extracts for normalization. Densitometry was performed using NIH Image software."}, "Gag": {"tested_on": "Gag", "conditions": "cells expressing the peptide"}, "Luc-Ada viral particles": {"tested_on": "Luc-Ada viral particles", "experiment": "Production of Luc-Ada viral particles in cells expressing raft-targeted protease peptide", "conditions": "cells expressing the peptide; FIG. 8B as printed"}, "[8]": {"conditions": "lovastatin-treated PBMC, FIG. 8A"}},
  "data": [
    {"molecule": "COC(=O)[C@H](CCSC)NC(=O)c1ccc(NC[C@@H](N)CS)cc1-c1ccccc1", "note": "[farnesyl transferase inhibitor]", "values": [
      {"measurement": "Entry of VSV-pseudotyped virus", "setting": "[1]", "result": "did not affect"},
      {"measurement": "Entry of R5-pseudotyped virus", "setting": "[2]", "result": "not"}
    ]},
    {"molecule": "CC(C)CCC[C@@H](C)[C@H]1CC[C@H]2[C@@H]3CC=C4C[C@@H](O)CC[C@]4(C)[C@H]3CC[C@]12C", "note": "[cholesterol]", "values": [
      {"measurement": "Restoration of patch size and gp120-CXCR4 co-localization in lovastatin-treated cells", "setting": "[3]; FIG. 8A", "result": "not"},
      {"measurement": "Reversal of lovastatin-induced increase in LTR-driven transcription", "setting": "[4]; MT2-CCR5 cells, FIG. 7D", "result": "not"},
      {"measurement": "Reversal of lovastatin-induced inhibition of HIV-1 entry", "setting": "[2]", "result": "not"}
    ]},
    {"molecule": "L-mevalonate", "values": [
      {"measurement": "Reversal of lovastatin effect on p24 production", "setting": "X4 (NL4-3) HIV-1 strain; co-incubation with lovastatin, X4-infected cultures", "result": "reversed"},
      {"measurement": "Restoration of patch size and gp120-CXCR4 co-localization in lovastatin-treated cells", "setting": "[3]; FIG. 8A", "result": "restored"},
      {"measurement": "Reversal of lovastatin-induced reduction of viral production", "setting": "[5]; co-incubation with lovastatin, FIG. 6B", "result": "reversed"},
      {"measurement": "Reversal of lovastatin effect on p24 production", "setting": "R5 (BaL) HIV-1 strain; co-incubation with lovastatin, R5-infected cultures", "result": "reversed"},
      {"measurement": "Reversal of lovastatin-induced increase in LTR-driven promoter activity", "setting": "[4]; Jurkat cells, co-incubation with lovastatin, FIG. 6C", "result": "reversed"},
      {"measurement": "Reversal of lovastatin-induced inhibition of HIV-1 entry", "setting": "[2]", "result": "reversed"}
    ]},
    {"molecule": "COC(=O)[C@H](CC(C)C)NC(=O)c1ccc(NC[C@@H](N)CS)cc1-c1ccccc1", "note": "[geranylgeranyl transferase inhibitor]", "values": [
      {"measurement": "Entry of VSV-pseudotyped virus", "setting": "[1]", "result": "did not affect"},
      {"measurement": "HIV transcription (LTR-driven)", "setting": "[4]; MT2-CCR5 cells, FIG. 7D", "result": "increased"},
      {"measurement": "Entry of R5-pseudotyped virus", "setting": "[2]", "result": "inhibited"}
    ]},
    {"molecule": "CC(C)=CCC/C(C)=C/CC/C(C)=C/COP(=O)(O)OP(=O)(O)O", "note": "[FPP, famesylpyrophosphate]", "values": [
      {"measurement": "Reversal of lovastatin-induced increase in LTR-driven transcription", "setting": "[4]; MT2-CCR5 cells, FIG. 7D", "result": "not"},
      {"measurement": "Reversal of lovastatin-induced inhibition of HIV-1 entry", "setting": "[2]", "result": "not"}
    ]},
    {"molecule": "CC[C@H](C)C(=O)O[C@H]1C[C@@H](C)C=C2C=C[C@H](C)[C@H](CC[C@@H]3C[C@@H](O)CC(=O)O3)[C@H]21", "note": "[lovastatin]", "values": [
      {"measurement": "Virus rescue by co-culture of peritoneal cells with PHA-activated human PBMC", "setting": "HIV-1 NL4-3; cells from two mice with undetectable viral RNA", "result": "did not rescue virus"},
      {"measurement": "Mice with undetectable viral RNA in plasma", "setting": "HIV-1 NL4-3; lovastatin i.p. 5 mg/kg every three days", "result": "4 of 10"},
      {"measurement": "Mean viral load (plasma HIV-1 RNA)", "setting": "HIV-1 NL4-3; lovastatin i.p. 5 mg/kg every three days, one week post-infection, vs vehicle, FIG. 5C", "result": "significantly reduced"},
      {"measurement": "CD4+ T cell counts vs controls", "setting": "HIV-1 NL4-3; one week post-infection", "result": "higher"},
      {"measurement": "HIV-1 replication (p24 antigen production)", "setting": "X4 (NL4-3) HIV-1 strain; PBMC pretreated 48 h with 10 μM lovastatin, X4 (NL4-3)-infected cultures, FIG. 5A", "result": "reduced p24 antigen production"},
      {"measurement": "gp120 binding to CD4", "setting": "[3]; lovastatin-treated PBMC", "result": "did not affect"},
      {"measurement": "Co-localization between gp120 and CXCR4", "setting": "[3]; [8]", "result": "drastically reduced"},
      {"measurement": "gp120 patch size vs untreated cells", "setting": "[3]; [8]", "result": "smaller gp120 patches"},
      {"measurement": "HIV-1-pseudotyped viral production", "setting": "[5]", "result": "reduced"},
      {"measurement": "HIV-1 replication (p24 antigen production)", "setting": "R5 (BaL) HIV-1 strain; PBMC pretreated 48 h with 10 μM lovastatin, R5 (BaL)-infected cultures, FIG. 5A", "result": "reduced p24 antigen production"},
      {"measurement": "HIV-1 LTR-driven promoter activity", "setting": "[4]; Jurkat cells, FIG. 6C", "result": "increased"},
      {"measurement": "Entry of R5-pseudotyped virus", "setting": "[2]", "result": "inhibited entry"},
      {"measurement": "Serum viral RNA loads", "setting": "HIV-1; six A1 stage non-HAART patients, 40 mg/day oral, one month, sole therapy", "result": "clear reduction"},
      {"measurement": "Viral load after discontinuation of treatment", "setting": "HIV-1; three months after termination of treatment", "result": "rebound"},
      {"measurement": "VSV-G-pseudotyped viral production", "setting": "[6]", "result": "not that of VSV-G-pseudotyped viruses"},
      {"measurement": "Entry of X4-pseudotyped virus", "setting": "[7]", "result": "inhibited entry"},
      {"measurement": "Cholesteryl ester mass", "setting": "MT2-CCR5 cells", "result": "drastically reduced"},
      {"measurement": "Free cholesterol levels vs untreated cells", "setting": "MT2-CCR5 cells", "result": "comparable"},
      {"measurement": "Number of labeled cells or labeling intensity", "setting": "grafted human PBMC", "result": "No difference"},
      {"measurement": "HIV-1-induced Rho activation", "setting": "Rho; MT2-CCR5 cells incubated with lovastatin prior to virus exposure", "result": "inhibited"}
    ]},
    {"molecule": "CC(C)=CCC/C(C)=C/CC/C(C)=C/CC/C(C)=C/COP(=O)(O)OP(=O)(O)O", "note": "[GGPP, geranylgeranylpyrophosphate]", "values": [
      {"measurement": "Reversal of lovastatin-induced increase in LTR-driven transcription", "setting": "[4]; MT2-CCR5 cells, FIG. 7D", "result": "reversed"},
      {"measurement": "Reversal of lovastatin-induced inhibition of HIV-1 entry", "setting": "[2]", "result": "reversed"},
      {"measurement": "Reversal of lovastatin inhibition of HIV-1-induced Rho activation", "setting": "Rho; co-incubation with lovastatin", "result": "reversed"}
    ]},
    {"molecule": "MGCGCSSHPEDDISYEL [SEQ. ID. NO: 21]", "values": [
      {"measurement": "Gag processing", "setting": "Gag", "result": "severely attenuated"},
      {"measurement": "Production of Luc-Ada viral particles", "setting": "Luc-Ada viral particles", "result": "severely diminished"}
    ]}
  ]
}
